Data set [1] has as its target T1, hrMAO-A (Homo sapiens, UniProt P21397).
T1 construct: purchased XenoTech Lot #8213001
T1 sequence (P21397 1-527): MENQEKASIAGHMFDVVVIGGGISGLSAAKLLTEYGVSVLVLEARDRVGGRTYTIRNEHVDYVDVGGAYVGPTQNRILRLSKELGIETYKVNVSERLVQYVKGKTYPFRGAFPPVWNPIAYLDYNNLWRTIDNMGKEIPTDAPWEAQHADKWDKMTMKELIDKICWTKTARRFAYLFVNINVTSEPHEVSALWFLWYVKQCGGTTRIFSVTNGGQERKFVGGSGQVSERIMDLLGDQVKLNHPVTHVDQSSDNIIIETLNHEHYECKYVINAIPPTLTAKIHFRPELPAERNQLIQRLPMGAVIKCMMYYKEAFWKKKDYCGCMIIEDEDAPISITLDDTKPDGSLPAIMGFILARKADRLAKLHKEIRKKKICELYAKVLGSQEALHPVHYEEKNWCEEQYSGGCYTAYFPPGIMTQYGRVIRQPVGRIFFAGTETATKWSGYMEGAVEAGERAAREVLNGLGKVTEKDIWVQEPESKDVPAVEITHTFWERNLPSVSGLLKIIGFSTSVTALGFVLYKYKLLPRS
The data set can be described thus: Metabolic stability in the presence of hrMAO-A. The data set is classed as in vitro ADME. As to conditions: for MAO, % (half-life as % vs. the related nondeuterated compound) / MAO (metabolized or not): MAO-A; for MAO, % (half-life as % vs. the related nondeuterated compound): values in square brackets are within 10% difference (assay's accuracy), no deuteration effect; for MAO (metabolized or not): last assay time point 120 min. As to the method: The reaction mixture was prepared as described below. The co-dosed TAs were added into the reaction mixture at a final concentration of 1 microM each. The positive control, kynuramine (25 microM), was run simultaneously with the TAs in a separate reaction. The reaction mixture (without TAs or kynuramine) was equilibrated in a shaking water bath at 37° C. for 5 minutes. The reaction was initiated by the addition of the TAs or kynuramine, and the mixture was incubated in a shaking water bath at 37° C. Aliquots (100 microL) of the TA reaction mixture were withdrawn at 0, 5, 10, 20, 30, 60, and 120 minutes. Aliquots (100 microL) of the positive control reaction mixture were withdrawn at 0 and 30 minutes. TA and kynuramine samples were immediately combined with 100 microL of ice-cold 100% MeCN containing 0.1% formic acid and IS to terminate the reaction. The samples were then mixed and centrifuged to precipitate proteins. All TA samples were assayed by LC-HRAMS. The PARR (analyte to IS) at each time point was compared to the PARR at time 0 to determine the percent remaining at each time point. Reaction composition: hrMAO 0.02 mg/mL; Potassium Phosphate, pH 7.4 100 mM; Magnesium Chloride 5 mM; Test Articles (each) 1 microM.

The test system of data set [2] is rat liver microsomes. The data set can be described thus: Metabolic stability in rat liver microsomes (RLM). Conditions: RLM; for RLM, % (half-life as % vs. the related nondeuterated compound): values in square brackets are within 10% difference (assay's accuracy), no deuteration effect; for RLM (metabolized or not): last assay time point 120 min.

`[2H]C([2H])([2H])Oc1ccc2[nH]cc(CCN(C)C)c2c1`: in data set [1], the “MAO, % (half-life as % vs. the related nondeuterated compound)” value (from here on “MAO, %”) was “[109] %”. In addition, the “RLM, % (half-life as % vs. the related nondeuterated compound)” value (shortened to “RLM, %”) in data set [2] turned out to be 151%.
As to `CCN(CC)CCc1c[nH]c2ccc(O)cc12` [reference compound], in data set [2], the “RLM (metabolized or not)” value is “R”.
Take `CCN(C)CCc1c[nH]c2cccc(OC)c12` [reference compound]: the “MAO (metabolized or not)” value in data set [1] is listed as “R”. Besides, the “RLM (metabolized or not)” value in data set [2] is “R”.
In the case of `CCN(C)CCc1c[nH]c2ccc(O)cc12` [reference compound], the “MAO (metabolized or not)” value in data set [1] is “R”. In addition, the “RLM (metabolized or not)” value in data set [2] is “R”.
On to `[2H]C([2H])(Cc1c[nH]c2cccc(OC)c12)N(C)CC`, for which the “MAO, %” value in data set [1] is 281%. The “RLM, %” value in data set [2] is on record as 163%.
In the case of `[2H]c1[nH]c2c([2H])c([2H])c([2H])c(O)c2c1CCN(C(C)C)C(C)C`, in data set [2], the “RLM, %” value is recorded as 167%.
Take `[2H]c1ccc2[nH]c([2H])c(CCN([2H])CC)c2c1O`: the “RLM (metabolized or not)” value in data set [2] is reported as “R”.
As for `[2H]C([2H])(c1c[nH]c2cccc(OC)c12)C([2H])([2H])N(C)C`, the “MAO, %” value in data set [1] worked out at 325%. Also, the “RLM, %” value in data set [2] was 190%.
On to `[2H]C([2H])(c1c[nH]c2ccc(O)cc12)C([2H])([2H])N(CC)CC`, for which, in data set [2], the “RLM, %” value is “[106] %”.
As for `[2H]c1[nH]c2c([2H])c([2H])c([2H])c([2H])c2c1C([2H])([2H])C([2H])([2H])N(C)C`, the “MAO, %” value in data set [1] was 551%. Also, the “RLM, %” value in data set [2] came out at 243%.
For `CC(C)N(CCc1c[nH]c2cccc(O)c12)C(C)C` [reference compound], in data set [2], the “RLM (metabolized or not)” value is “R”.
In the case of `[2H]C([2H])(NCC)C([2H])([2H])c1c[nH]c2ccccc12`, in data set [1], the “MAO, %” value worked out at 140%. Also, the “RLM, %” value in data set [2] is on record as 142%.
Regarding `CCN(CC)CCc1c[nH]c2ccccc12` [reference compound], the “RLM (metabolized or not)” value in data set [2] is listed as “R”.
`[2H]C([2H])(Cc1c[nH]c2cccc(O)c12)NC`: the “MAO, %” value in data set [1] came to 395%. Also, the “RLM, %” value in data set [2] amounted to 154%.
In the case of `[2H]C([2H])(c1c[nH]c2cccc(O)c12)C([2H])([2H])N(C(C)C)C(C)C`, the “RLM, %” value in data set [2] is “[97] %”.
On to `[2H]C([2H])(NC)C([2H])([2H])c1c[nH]c2ccccc12`, for which, in data set [1], the “MAO, %” value turned out to be 622%. Also, the “RLM, %” value in data set [2] worked out at 189%.
Take `[2H]C([2H])(Cc1c[nH]c2ccc(OC)cc12)N(C)CC`: in data set [1], the “MAO, %” value is reported as 126%. The “RLM, %” value in data set [2] came out at 117%.
Consider `[2H]c1[nH]c2c([2H])c([2H])c([2H])c(O)c2c1CCN([2H])C(C)C`, for which, in data set [2], the “RLM, %” value is 131%.
On to `[2H]C([2H])([2H])NC([2H])([2H])Cc1c[nH]c2ccccc12`, for which the “MAO, %” value in data set [1] turned out to be 744%. Besides, the “RLM, %” value in data set [2] was determined as 207%.
Take `CN(C)CCc1c[nH]c2ccccc12` [DMT, reference compound]: the “% Remaining of Initial, 0 min” value in data set [1] (hrMAO-A, 0 min, Table 3, four test articles) is 100%; in data set [2] (0 min, Table 2, four test articles) it was 100%. The “% Remaining of Initial, 5 min” value in data set [1] (hrMAO-A, 5 min, Table 3, four test articles) came out at 96.3%; in data set [2] (5 min, Table 2, four test articles), 65.2%. Besides, the “% Remaining of Initial, 10 min” value in data set [1] (hrMAO-A, 10 min, Table 3, four test articles) is on record as 90.7%; in data set [2] (10 min, Table 2, four test articles), 52.2%. The “% Remaining of Initial, 20 min” value in data set [1] (hrMAO-A, 20 min, Table 3, four test articles) came to 64.8%; in data set [2] (20 min, Table 2, four test articles), 41.0%. Moreover, the “% Remaining of Initial, 30 min” value in data set [1] (hrMAO-A, 30 min, Table 3, four test articles) came out at 49.4%; in data set [2] (30 min, Table 2, four test articles), 33.2%. The “% Remaining of Initial, 60 min” value amounted to 18.1% in data set [1] (hrMAO-A, 60 min, Table 3, four test articles) and 17.4% in data set [2] (60 min, Table 2, four test articles). The “% Remaining of Initial, 120 min” value in data set [1] (hrMAO-A, 120 min, Table 3, four test articles) is listed as 3.95%; in data set [2] (120 min, Table 2, four test articles) it was 4.07%. For the same compound, the CLint in data set [1] (hrMAO-A, Table 3) stood at 0.638 mL/min/mg protein. Also, in data set [1] (hrMAO-A, Table 3, four test articles), the Half-life turned out to be 27.2 min.
Regarding `[2H]C([2H])(Cc1c[nH]c2ccccc12)NCC`, in data set [1], the “MAO, %” value amounted to 145%. For the same compound, the “RLM, %” value in data set [2] is 138%.
For the compound `CC(C)NCCc1c[nH]c2cccc(O)c12` [reference compound], in data set [2], the “RLM (metabolized or not)” value was “R”.
On the same count and under the same terms, to `CCN(CC)CCc1c[nH]c2ccc(OC)cc12` [reference compound] belongs “R”.
In the case of `[2H]C([2H])(Cc1c[nH]c2ccc(O)cc12)N(C)CC`, the “MAO, %” value in data set [1] was found to be 173%. Also, the “RLM, %” value in data set [2] came out at 132%.
In the case of `CCNCCc1c[nH]c2ccccc12` [reference compound], the “MAO (metabolized or not)” value in data set [1] is recorded as “R”. Also, the “RLM (metabolized or not)” value in data set [2] is “R”.
With `[2H]C([2H])(Cc1c[nH]c2cccc(OC)c12)N(C)C`, the “MAO, %” value in data set [1] turned out to be 335%. The “RLM, %” value in data set [2] stood at 185%.
Consider `C=CCN(CC=C)CCc1c[nH]c2ccccc12` [reference compound], for which, in data set [2], the “RLM (metabolized or not)” value is “R”.
In the case of `[2H]C([2H])(c1c[nH]c2ccc(O)cc12)C([2H])([2H])N(C)C`, the “MAO, %” value in data set [1] stood at 418%. Also, the “RLM, %” value in data set [2] stood at 136%.
Regarding `CCN(CC)CCc1c[nH]c2cccc(OC)c12` [reference compound], the “RLM (metabolized or not)” value in data set [2] is reported as “R”.
For `[2H]c1[nH]c2c([2H])c([2H])c([2H])c([2H])c2c1CCN([2H])C(C)C`, in data set [2], the “RLM, %” value was found to be 145%.
Consider `[2H]C([2H])(Cc1c[nH]c2ccccc12)NC([2H])([2H])C([2H])([2H])[2H]`, for which, in data set [1], the “MAO, %” value was 170%. In data set [2], the “RLM, %” value worked out at 151%.
`[2H]C([2H])(c1c[nH]c2ccc(OC)cc12)C([2H])([2H])N(CC)CC`: in data set [2], the “RLM, %” value is “[95] %”.
Take `[2H]C([2H])(Cc1c[nH]c2ccccc12)N(C)CC`: in data set [1], the “MAO, %” value is 168%. In data set [2], the “RLM, %” value was determined as 121%.
Consider `CCNCCc1c[nH]c2cccc(O)c12` [reference compound], for which the “RLM (metabolized or not)” value in data set [2] is “R”.
Regarding `CNCCc1c[nH]c2cccc(O)c12` [reference compound], the “MAO (metabolized or not)” value in data set [1] is on record as “R”. Further, in data set [2], the “RLM (metabolized or not)” value is “R”.
Turning to `[2H]C([2H])(NC(C)C)C([2H])([2H])c1c[nH]c2ccccc12`, in data set [2], the “RLM, %” value was “[106] %”.
Same read-out and setting: to `[2H]C([2H])([2H])C([2H])([2H])NC([2H])([2H])C([2H])([2H])c1c[nH]c2cccc(O)c12` belongs “[93] %”; to `[2H]C([2H])(NC(C)C)C([2H])([2H])c1c[nH]c2cccc(O)c12`, “[108] %”; to `[2H]C([2H])(c1c[nH]c2ccccc12)C([2H])([2H])N(CC=C)CC=C`, “[106] %”.
On the same count and under the same terms, the entry for `[2H]C([2H])(NCC)C([2H])([2H])c1c[nH]c2cccc(O)c12` is “[94] %”.
As to `C=CCNCCc1c[nH]c2ccccc12` [reference compound], the “RLM (metabolized or not)” value in data set [2] was “R”.
The same measure, in the same setting: the entry for `CC(C)NCCc1c[nH]c2ccccc12` [reference compound] is “R”.
Regarding `[2H]C([2H])(c1c[nH]c2ccccc12)C([2H])([2H])N(CC)CC`, the “RLM, %” value in data set [2] is “[105] %”.
Take `[2H]c1[nH]c2c([2H])c([2H])c(OC)c([2H])c2c1CCN(CC)CC`: the “RLM, %” value in data set [2] turned out to be 172%.

(Values after patent US12240813B2, “Deuterated tryptamine derivatives and methods of use” (priority 2020, dated 2025).)
